Patent US7341867B2, “Human preprotachykinin gene promoter” (University of Medicine & Dentistry of New Jersey, priority 1999, dated 2008)

What was measured:
Format in all cases: cell-based, human
β-PPT-I mRNA = assay: Quantitative RT-PCR in stimulated bone marrow stroma
Experimental: (§1) In a second embodiment of the present invention, bone marrow stroma was stimulated in serum-free α-MEM supplemented with Insulin-transferrin-selenium-A (Life Technologies). Quantitative RT-PCR with total RNA, extracted from bone marrow stroma and construction of standard DNA was performed as described in Singh, D., supra. The end sequences of the standard DNA contained gene-specific sequences that are complementary for the reaction primers. The primers in the standard DNA flank neutral DNA. Total RNA (2 μg) was reverse transcribed and 200 ng cDNA used in PCR with specific oligonucleotide primers for PPT-I, NK-1 or NK-2. Standard DNA, log10 fold dilutions, ranged between 10^−2 to 10^−6 attomole/L. Each unknown sample was assayed with a particular concentration of standard DNA in the same reaction tube. PCR products (10 μl) were separated by electrophoresis on 1.5% agarose containing ethidium bromide and the densities of the DNA bands quantitated with a Fluorimager (Molecular Dynamics, Sunnyvale, Calif.) and then analyzed with ImageQuant software. A standard curve was established for each unknown sample: band densities of unknown/standard DNA vs. Log10 standard DNA concentration was used to determine the concentration of RNA molecules in the unknown samples. The concentration of the unknown sample was selected at the concentration in which the ratio of the unknown and standard were equivalent.
(§2) Transfected bone marrow stroma was stimulated with optimal concentrations of IL-1α (2.5 ng/ml), SCF (8 ng/ml) or 1 nM substance P, SP (Sigma, St Louis, Mo.) and/or 10 nM NK-1-specific antagonist (CP-99,994) in α-MEM with 2% FCS. In other embodiments, bone marrow stroma was stimulated with 5 μg/ml forskolin, FK (Sigma) for 2 and 5 h. SCF was purchased from R&D Systems (Minneapolis, Minn.) and IL-1α was obtained from Hoffman LaRoche, Nutley, N.J. Pfizer, Inc. (Groton, Conn.) provided CP-99,994. Substance P and CP-99,994 were dissolved and stored as described in Ramewshwar et al (1996), supra. Optimal parameters were determined with dose-response and time-course studies.
Confluent bone marrow stroma was stimulated with 25 ng/ml rhIL-1α or 10 ng/ml SCF for 24 h. Poly A RNA was isolated from total RNA by selection (2×) on oligo-dT cellulose (Life Technologies). The cellulose column was washed once with 10 mM Tris, pH 7.0; 0.5 M NaCl; […] and once with 10 mM Tris, pH 7.0; 0.2 M NaCl; […]. Poly A RNA was eluted with 10 mM Tris (pH 7.0) and […]. RNA was precipitated by standard techniques and then resuspended in DEPC-treated water. The purity was verified by the absence of rRNA.

SP-IR = assay: ELISA of immunoreactive-SP (SP-IR) in stroma cell extracts
Experimental: Competitive ELISA quantitated SP-IR in supernatants from breast cancer cell cultures that were 80% confluent. Cell-free supernatants were stored in siliconized tubes at −70° C. until ready to be assayed. Streptavidin, […] in distilled water, was added to Immulon 96-well plates (Dynatech Laboratories Inc., Chantilly, Va.). Streptavidin was allowed to dry at 37° C. After this, wells were blocked with 5% nonfat dry milk for 2 hr at room temperature and then washed with PBS containing 0.1% Tween-20 (PBST). Chiron Mimotopes (Emeryville, Calif.) synthesized biotinylated-SP, with spacer arm. Stock solution was diluted in 0.1% (v/v) acetic acid at 5 mg/ml, aliquoted in siliconized tubes and stored at −70° C. Working solution was diluted at 750 ng/ml with PBS containing 0.1% (w/v) BSA and 0.1% (w/v) sodium azide. Biotinylated-SP ([…]) was added to wells and plates incubated for 1 hr at room temperature. Plates were washed (×4) with PBST. Competition by the […] and soluble SP for anti-SP forms the basis for the next step. Equal volume (50 μl) of optimum rabbit anti-SP (1/15,000), and unknown or standard solution were added to wells. Plates were incubated at room temperature for 1 hr. Each unknown was assayed in triplicate as undiluted and three serial dilutions. Bound anti-SP was detected by incubating for 1 hr with optimum (150 ng/ml) AP-goat antirabbit IgG. Color was developed with Sigma 104 phosphatase substrate as described (Rameshwar, P. et al. (1996), Blood 88, 98-106). A standard curve was developed with O.D. (405 nm) versus 12 serial dilutions of standard SP that ranged from 100 to 0.08 ng/ml. […]
In the next set of experiments, we investigated the possibility for an indirect mechanism in the activation of PPT-I promoter. […] Since SCF induces endogenous PPT-I (Table 6), we used ELISA (Singh, D. et al, supra) to quantitate the level of its major translation product, immunoreactive-SP (SP-IR), in stroma cell extracts. […] To address this, we incubated the SCF-stimulated cells with 10 nM of an NK-1-specific antagonist (CP-99,994) and then quantitated luciferase activity. […]

NK-1 mRNA = assay: Quantitative RT-PCR in stimulated bone marrow stroma
Experimental: as §1, §2

NK-2 mRNA = assay: as above; conditions: BM stroma; 8 ng/ml SCF or 2.5 ng/ml IL-1a; 16 h; serum-free α-MEM
Experimental: as §1, §2

[1] = test system: PPT-I promoter (Upstream/N0); assay: Luciferase reporter gene assay, pGL3-Upstream/N0 in transfected bone marrow stroma
Experimental: as §2
pGL3-basic with inserts of different fragments from PPT-I-p1.2 was co-transfected with pβ-gal-Control (0.5 μg each) in 80% confluent bone marrow stroma using SuperFect (Qiagen, Valencia, Calif.). After 48 h cells were scraped in 30 μl 250 mM Tris (pH 8.0) and then lysed by freezing and thawing in a dry ice/ethanol bath. Cell-free lysates (24 μl) were obtained by centrifugation at 15,000 g for 5 min at 4° C. and then diluted with 5× cell culture lysis buffer (Promega). Luciferase and β-gal activities were quantitated with 10 μl of lysates using Luciferase assay system (Promega) and Luminescent β-galactosidase detection kit II (Clontech) respectively. In the experimental model, the ratios of Luciferase/β-gal in cells transfected with vector alone ranged from 0.18 to 0.19 and was normalized to 1. Because cytokines induce the promoter upstream of β-gal, in cytokine-stimulated cells, luciferase activity was presented/mg of total protein the levels normalized with stroma transfected with vector alone. Total protein was determined using standard techniquees well known in the art.
Mutations were performed with a mutagenesis kit (Stratagene, La Jolla, Calif.). The desired mutant sequences (Table 1) were synthesized within 40 nt in the forward and reverse directions and then used in PCR with pGL3 containing wild type Upstream/N0. After PCR amplification, mutation was verified by identification of Apa L1 within CRE-like mutant and the loss of Xho 1 in CRE mutant.

[2] = BM stroma, 8 ng/ml SCF or 2.5 ng/ml IL-1a, 16 h, serum-free α-MEM
[3] = stroma stimulated with SCF, five experiments

Substance: SCF: stem cell factor, cytokine purchased from R&D Systems
- β-PPT-I (molecules/μg total RNA) (β-PPT-I mRNA; BM stroma, 1 nM SP, 8 ng/ml SCF and/or 10 nM CP-99,994, 16 h): 1324 ± 76 molecules/μg total RNA
- β-PPT-I mRNA (β-PPT-I mRNA; [2]): 1336 ± 134 Molecules/μg total RNA
- molecules of β-PPT-I/μg poly A (β-PPT-I mRNA; poly A RNA from stroma stimulated with 25 ng/ml rhIL-1α or 10 ng/ml SCF for 24 h, n=6): 134,340±545 molecules of β-PPT-I/μg poly A
- SP-IR in stromal extracts (SP-IR; SCF-stimulated, after 36 h, n=5, ±SD): 115 ± 8 pg/mL
- SP-IR at 4 h post-transfection (SP-IR; [3]): 122 ± 14 pg/mL
- SP-IR at time 0 post-transfection (SP-IR; [3]): 110 ± 18 pg/mL
- NK-1 mRNA (NK-1 mRNA; [2]): 5253 ± 170 Molecules/μg total RNA
- NK-1 induced (NK-1 mRNA; optimal SCF for 36 h): 5052±50 molecules/μg total RNA
- NK-2 mRNA (NK-2 mRNA): 273 ± 19 Molecules/μg total RNA
- increase in luciferase activities compared to unstimulated cells ([1]; pGL3-Upstream/N0 wild type, optimal SCF or IL-1a, 10 h): 4 fold
- induction of luciferase in cells transfected with the double mutants ([1]; pGL3-Upstream/N0 with mutant CRE and CRE-like): no significant induction
